Measurements: article PMC8878501 (Marine Drugs, 2022)
Positions of bridges follow the written chain, without caps; N, C: chain ends. Residues, ends and D or L forms follow the SMILES beside them.

How the values were obtained:
rα7 nAChR = rα7 nAChR (Rattus norvegicus, UniProt Q05941); assay type: cell-based; settings: at 20 μM
rα3β2 nAChR = rα3β2 nAChR (Rattus norvegicus, UniProt P04757+P12390); assay: cell-based; settings: 20–25 °C
hα9α10 nAChR = hα9α10 nAChR (Homo sapiens, UniProt Q9GZZ6+Q9UGM1); assay: cell-based
hα9α10 nAChR, sequence (Q9UGM1 26-479 limits assumed): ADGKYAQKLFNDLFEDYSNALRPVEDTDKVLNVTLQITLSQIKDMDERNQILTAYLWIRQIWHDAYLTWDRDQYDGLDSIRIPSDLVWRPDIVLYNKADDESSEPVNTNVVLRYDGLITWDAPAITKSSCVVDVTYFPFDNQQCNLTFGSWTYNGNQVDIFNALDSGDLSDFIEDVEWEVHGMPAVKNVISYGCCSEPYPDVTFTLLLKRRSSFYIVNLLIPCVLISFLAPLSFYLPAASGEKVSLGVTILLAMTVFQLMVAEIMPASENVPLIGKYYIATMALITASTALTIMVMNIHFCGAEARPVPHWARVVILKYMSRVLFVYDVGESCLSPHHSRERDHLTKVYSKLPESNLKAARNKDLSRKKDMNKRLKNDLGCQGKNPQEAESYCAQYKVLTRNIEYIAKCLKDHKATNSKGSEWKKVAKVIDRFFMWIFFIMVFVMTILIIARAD
hα9α10 nAChR, sequence (Q9GZZ6 25-450 limits assumed): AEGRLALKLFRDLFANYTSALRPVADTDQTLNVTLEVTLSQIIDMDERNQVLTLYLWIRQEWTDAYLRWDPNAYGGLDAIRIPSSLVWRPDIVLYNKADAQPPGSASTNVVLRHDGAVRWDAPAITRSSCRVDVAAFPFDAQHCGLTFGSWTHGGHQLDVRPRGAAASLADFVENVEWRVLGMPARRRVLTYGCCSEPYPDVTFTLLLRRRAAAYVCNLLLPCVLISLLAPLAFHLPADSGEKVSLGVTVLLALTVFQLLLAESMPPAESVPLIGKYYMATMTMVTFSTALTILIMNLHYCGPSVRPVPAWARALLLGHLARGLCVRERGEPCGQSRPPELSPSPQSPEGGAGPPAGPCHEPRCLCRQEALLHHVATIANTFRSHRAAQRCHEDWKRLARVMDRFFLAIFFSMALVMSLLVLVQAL

rα9α10 nAChR = rα9α10 nAChR (Rattus norvegicus, UniProt P43144+Q9JLB5); assay: cell-based; assay type: cell-based
rα9α10 nAChR, sequence (P43144 26-479 limits assumed): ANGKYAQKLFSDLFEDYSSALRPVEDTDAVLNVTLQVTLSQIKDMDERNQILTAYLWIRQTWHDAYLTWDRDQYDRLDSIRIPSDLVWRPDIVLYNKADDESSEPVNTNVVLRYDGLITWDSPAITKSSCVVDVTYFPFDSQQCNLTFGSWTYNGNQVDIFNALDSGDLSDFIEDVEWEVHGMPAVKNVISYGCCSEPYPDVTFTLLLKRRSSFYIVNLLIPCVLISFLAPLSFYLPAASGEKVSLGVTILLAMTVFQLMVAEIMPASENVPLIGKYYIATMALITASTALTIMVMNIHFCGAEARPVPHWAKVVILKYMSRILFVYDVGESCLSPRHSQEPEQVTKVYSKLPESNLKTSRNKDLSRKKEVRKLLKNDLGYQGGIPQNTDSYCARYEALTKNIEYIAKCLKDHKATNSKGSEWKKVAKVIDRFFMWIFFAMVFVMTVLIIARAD
rα9α10 nAChR, sequence (Q9JLB5 25-447 limits assumed): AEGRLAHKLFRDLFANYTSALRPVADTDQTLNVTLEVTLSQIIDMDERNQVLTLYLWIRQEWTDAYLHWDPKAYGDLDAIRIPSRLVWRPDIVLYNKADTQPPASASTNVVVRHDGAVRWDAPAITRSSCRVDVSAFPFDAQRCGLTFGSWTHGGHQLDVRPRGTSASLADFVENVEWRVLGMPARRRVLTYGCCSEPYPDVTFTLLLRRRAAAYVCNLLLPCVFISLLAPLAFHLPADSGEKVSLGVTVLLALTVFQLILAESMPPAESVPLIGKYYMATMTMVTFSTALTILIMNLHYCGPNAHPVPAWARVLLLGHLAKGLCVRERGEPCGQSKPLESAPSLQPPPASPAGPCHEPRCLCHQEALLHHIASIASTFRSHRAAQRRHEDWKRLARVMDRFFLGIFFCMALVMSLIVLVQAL

rα3β4 nAChR = rα3β4 nAChR (Rattus norvegicus, UniProt P04757+P12392); assay: cell-based; assay type: cell-based
rα3β4 nAChR, sequence (P04757 26-499 limits assumed): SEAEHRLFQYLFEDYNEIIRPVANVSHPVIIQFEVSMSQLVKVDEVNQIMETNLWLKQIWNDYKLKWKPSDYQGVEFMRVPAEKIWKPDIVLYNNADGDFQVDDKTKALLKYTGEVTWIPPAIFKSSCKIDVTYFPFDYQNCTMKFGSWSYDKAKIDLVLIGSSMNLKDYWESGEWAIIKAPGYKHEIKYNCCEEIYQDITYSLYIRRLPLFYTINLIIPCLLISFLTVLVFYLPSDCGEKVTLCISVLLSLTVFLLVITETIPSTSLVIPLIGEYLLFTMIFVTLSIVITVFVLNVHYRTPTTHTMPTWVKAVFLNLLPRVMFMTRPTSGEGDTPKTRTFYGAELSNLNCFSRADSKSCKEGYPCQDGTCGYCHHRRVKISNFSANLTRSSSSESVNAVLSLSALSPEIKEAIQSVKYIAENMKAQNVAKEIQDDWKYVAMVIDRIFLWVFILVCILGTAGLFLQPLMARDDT
rα3β4 nAChR, sequence (P12392 21-495 limits assumed): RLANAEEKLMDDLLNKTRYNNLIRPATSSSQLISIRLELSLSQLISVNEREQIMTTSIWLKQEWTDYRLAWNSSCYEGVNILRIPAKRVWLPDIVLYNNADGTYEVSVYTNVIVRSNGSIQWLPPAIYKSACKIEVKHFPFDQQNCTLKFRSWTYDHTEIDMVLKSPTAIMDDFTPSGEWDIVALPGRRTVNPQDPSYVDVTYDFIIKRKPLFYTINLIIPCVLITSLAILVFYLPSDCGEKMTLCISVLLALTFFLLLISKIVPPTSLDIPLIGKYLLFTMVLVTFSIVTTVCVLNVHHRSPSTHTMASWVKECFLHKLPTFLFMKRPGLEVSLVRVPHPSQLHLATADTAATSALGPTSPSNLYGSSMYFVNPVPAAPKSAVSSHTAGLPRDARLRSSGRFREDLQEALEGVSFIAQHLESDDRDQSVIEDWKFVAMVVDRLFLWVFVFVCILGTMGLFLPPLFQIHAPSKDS

rα6/α3β4 nAChR = rα6/α3β4 nAChR (Rattus norvegicus, UniProt P04757+P12392+P43143); assay: cell-based; settings: 20–25 °C
rα6/α3β2β3 nAChR = rα6/α3β2β3 nAChR (Rattus norvegicus, UniProt P04757+P12390+P12391+P43143); assay: cell-based
rα6/α3β2β3 nAChR, sequence (P04757 whole entry, looked up): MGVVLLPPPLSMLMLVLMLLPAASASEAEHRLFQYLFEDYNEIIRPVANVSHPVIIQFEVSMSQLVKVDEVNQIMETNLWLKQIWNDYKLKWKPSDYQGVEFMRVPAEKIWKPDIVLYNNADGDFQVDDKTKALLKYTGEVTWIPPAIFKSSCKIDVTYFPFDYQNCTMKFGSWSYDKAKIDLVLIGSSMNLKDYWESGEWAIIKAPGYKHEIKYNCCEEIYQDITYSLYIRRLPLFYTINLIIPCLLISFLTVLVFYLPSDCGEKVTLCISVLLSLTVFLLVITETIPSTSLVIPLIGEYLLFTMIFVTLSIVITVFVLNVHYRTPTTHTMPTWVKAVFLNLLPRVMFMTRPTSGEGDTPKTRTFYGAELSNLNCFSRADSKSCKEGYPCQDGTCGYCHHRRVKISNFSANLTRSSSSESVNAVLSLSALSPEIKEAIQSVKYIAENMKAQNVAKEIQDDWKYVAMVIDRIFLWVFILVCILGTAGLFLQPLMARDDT
rα6/α3β2β3 nAChR, sequence (P12390 whole entry, looked up): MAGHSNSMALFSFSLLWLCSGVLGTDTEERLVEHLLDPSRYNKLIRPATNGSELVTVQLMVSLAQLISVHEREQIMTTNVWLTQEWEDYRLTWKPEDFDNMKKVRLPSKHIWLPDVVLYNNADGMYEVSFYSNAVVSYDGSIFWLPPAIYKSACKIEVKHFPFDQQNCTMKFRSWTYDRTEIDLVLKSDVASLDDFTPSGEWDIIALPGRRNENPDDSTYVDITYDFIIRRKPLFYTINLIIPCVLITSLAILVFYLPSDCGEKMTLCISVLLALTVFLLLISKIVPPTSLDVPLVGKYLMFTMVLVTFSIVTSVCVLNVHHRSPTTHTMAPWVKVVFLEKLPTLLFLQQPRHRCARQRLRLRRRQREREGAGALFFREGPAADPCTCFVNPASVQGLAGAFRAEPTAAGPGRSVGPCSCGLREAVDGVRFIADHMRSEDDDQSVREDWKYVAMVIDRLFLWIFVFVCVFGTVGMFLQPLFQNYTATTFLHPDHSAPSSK
rα6/α3β2β3 nAChR, sequence (P12391 whole entry, looked up): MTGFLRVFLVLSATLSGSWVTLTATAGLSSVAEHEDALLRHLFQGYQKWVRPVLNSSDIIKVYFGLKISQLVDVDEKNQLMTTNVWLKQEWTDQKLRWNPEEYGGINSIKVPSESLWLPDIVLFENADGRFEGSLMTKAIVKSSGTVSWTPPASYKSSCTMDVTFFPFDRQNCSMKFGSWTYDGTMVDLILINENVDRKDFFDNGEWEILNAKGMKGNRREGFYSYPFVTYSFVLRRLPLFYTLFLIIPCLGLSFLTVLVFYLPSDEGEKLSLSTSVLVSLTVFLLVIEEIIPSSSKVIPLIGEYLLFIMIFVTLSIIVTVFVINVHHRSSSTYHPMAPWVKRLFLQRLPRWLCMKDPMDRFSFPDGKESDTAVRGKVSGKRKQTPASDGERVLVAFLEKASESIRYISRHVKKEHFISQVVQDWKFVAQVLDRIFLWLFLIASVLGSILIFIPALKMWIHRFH
rα6/α3β2β3 nAChR, sequence (P43143 whole entry, looked up): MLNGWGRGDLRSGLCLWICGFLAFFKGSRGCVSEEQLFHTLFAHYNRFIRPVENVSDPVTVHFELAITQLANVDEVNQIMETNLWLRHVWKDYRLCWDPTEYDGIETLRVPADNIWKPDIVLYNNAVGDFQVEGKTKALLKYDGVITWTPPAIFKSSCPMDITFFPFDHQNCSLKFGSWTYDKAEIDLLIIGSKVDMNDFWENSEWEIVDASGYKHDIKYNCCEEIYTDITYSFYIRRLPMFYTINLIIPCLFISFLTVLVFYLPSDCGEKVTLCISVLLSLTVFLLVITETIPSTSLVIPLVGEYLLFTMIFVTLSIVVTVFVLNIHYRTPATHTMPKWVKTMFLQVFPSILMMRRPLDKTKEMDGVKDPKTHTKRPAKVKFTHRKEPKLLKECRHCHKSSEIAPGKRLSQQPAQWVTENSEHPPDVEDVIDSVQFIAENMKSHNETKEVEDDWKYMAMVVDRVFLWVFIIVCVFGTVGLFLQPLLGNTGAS

rα4β2 nAChR = rα4β2 nAChR (Rattus norvegicus, UniProt P09483+P12390); assay: cell-based; assay type: cell-based

**Q.** For CC[C@H](C)[C@@H]1NC(=O)[C@H](CCC(=O)O)NC(=O)[C@@H]2CCCN2C(=O)[C@H](Cc2c[nH]cn2)NC(=O)[C@H]([C@@H](C)O)NC(=O)[C@H](CCC(N)=O)NC(=O)[C@H](C)NC(=O)[C@@H]2CSSC[C@H](NC(=O)[C@H](CCC(=O)O)NC(=O)[C@@H](N)CC(=O)O)C(=O)N[C@@H](CSSC[C@@H](C(N)=O)NC1=O)C(=O)N[C@@H](CO)C(=O)N[C@@H](CC(N)=O)C(=O)N1CCC[C@H]1C(=O)N[C@@H](CO)C(=O)N2 [QuIA] (H-DECCSNPSCAQTHPEIC-NH2; disulfide 3-9, 4-17), which “blocking of ACh-induced current” value (rα7 nAChR) is on record?
**A.** The value was “less than 50%”.

**Q.** What about the IC50 (rα3β2 nAChR) of the same compound?
**A.** The IC50 was 0.0557 µM.

**Q.** And the IC50 (hα9α10 nAChR)?
**A.** The IC50 was > 10 µM.

**Q.** And the “blocking of ACh-induced current” value (hα9α10 nAChR; at 10 µM)?
**A.** The value was “^a Values in parentheses are a 95% confidence interval (C.I.). ^b Less than 50% blocking at 10 µM. All receptors are of rat (r) or human (h) origin, except α1β1δε, which is of mouse (m) origin. ND, not determined”.

**Q.** And the IC50 (rα9α10 nAChR)?
**A.** The IC50 was > 10 µM.

**Q.** And the “blocking of ACh-induced current” value (rα9α10 nAChR; at 10 µM)?
**A.** The value was “^a Values in parentheses are a 95% confidence interval (C.I.). ^b Less than 50% blocking at 10 µM. All receptors are of rat (r) or human (h) origin, except α1β1δε, which is of mouse (m) origin. ND, not determined”.

**Q.** And the IC50 (rα3β4 nAChR)?
**A.** Its IC50 is > 10 µM.

**Q.** What about the “blocking of ACh-induced current” value (rα3β4 nAChR; at 10 µM) of the same compound?
**A.** Its value is “^a Values in parentheses are a 95% confidence interval (C.I.). ^b Less than 50% blocking at 10 µM. All receptors are of rat (r) or human (h) origin, except α1β1δε, which is of mouse (m) origin. ND, not determined”.

**Q.** And the IC50 (rα6/α3β4 nAChR)?
**A.** The IC50 was 0.0907 µM.

**Q.** And the IC50 (rα6/α3β2β3 nAChR)?
**A.** The IC50 was > 10 µM.

**Q.** What about the “blocking of ACh-induced current” value (rα6/α3β2β3 nAChR; at 10 µM) of the same compound?
**A.** Its value is “^a Values in parentheses are a 95% confidence interval (C.I.). ^b Less than 50% blocking at 10 µM. All receptors are of rat (r) or human (h) origin, except α1β1δε, which is of mouse (m) origin. ND, not determined”.

**Q.** And the IC50 (rα4β2 nAChR)?
**A.** The IC50 was > 10 µM.

**Q.** And the “blocking of ACh-induced current” value (rα4β2 nAChR; at 10 µM)?
**A.** Its value is “^a Values in parentheses are a 95% confidence interval (C.I.). ^b Less than 50% blocking at 10 µM. All receptors are of rat (r) or human (h) origin, except α1β1δε, which is of mouse (m) origin. ND, not determined”.
